Laboratory results published in the supplement of paper PMC10307832.

Tests used:
Test in all cases: relative viability (nuclei count vs DMSO), 5 days (fraction); higher = more cells survive
Cediranib + Pemetrexed = compound: COc1cc2c(Oc3ccc4[nH]c(C)cc4c3F)ncnc2cc1OCCCN1CCCC1 [Cediranib] + Nc1nc2[nH]cc(CCc3ccc(C(=O)N[C@@H](CCC(=O)O)C(=O)O)cc3)c2c(=O)[nH]1 [Pemetrexed] (partner 0.2 µM)
How it was run: (§1)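 Lung cancer cell lines, seeded in 1536-well plates, were treated the following day by pin tool with a single drug or with five library-drug doses (not always all listed) in √10 steps on top of a fixed anchor-drug dose. Cells were fixed and nuclei stained in one step after 5 days, and nuclei were counted. Relative viability is the nuclei count for treated wells divided by that for vehicle wells, reported as medians of duplicate plates.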

Cediranib + Pictilisib = compound: COc1cc2c(Oc3ccc4[nH]c(C)cc4c3F)ncnc2cc1OCCCN1CCCC1 [Cediranib] + CS(=O)(=O)N1CCN(Cc2cc3nc(-c4cccc5[nH]ncc45)nc(N4CCOCC4)c3s2)CC1 [Pictilisib] (partner 1 µM)
How it was run: as §1

[1] = compound: O=C(C[C@H]1NCCC[C@@H]1O)Cn1cnc2cc(Br)c(Cl)cc2c1=O (racemic) [Halofuginone] + C[C@]1(O)C[C@@H](c2nc(-c3ccc4ccc(-c5ccccc5)nc4c3)c3c(N)nccn32)C1 [Linsitinib] (partner 1 µM)
How it was run: as §1

Halofuginone + OSI-027 = compound: O=C(C[C@H]1NCCC[C@@H]1O)Cn1cnc2cc(Br)c(Cl)cc2c1=O (racemic) [Halofuginone] + COc1cccc2cc(-c3nc([C@H]4CC[C@H](C(=O)O)CC4)n4ncnc(N)c34)[nH]c12 [OSI-027] (partner 0.5 µM)
How it was run: as §1

Cell Line | relative viability (Cediranib + Pemetrexed; first compound 0.04 µM) | relative viability (Cediranib + Pemetrexed; first compound 0.4 µM) | relative viability (Cediranib + Pemetrexed; first compound 1.265 µM) | relative viability (Cediranib + Pemetrexed; first compound 4 µM) | relative viability (Cediranib + Pictilisib; first compound 0.04 µM) | relative viability (Cediranib + Pictilisib; first compound 0.1265 µM) | relative viability (Cediranib + Pictilisib; first compound 0.4 µM) | relative viability (Cediranib + Pictilisib; first compound 1.265 µM) | relative viability (Cediranib + Pictilisib; first compound 4 µM) | relative viability ([1]; first compound 0.001 µM) | relative viability ([1]; first compound 0.003162 µM) | relative viability ([1]; first compound 0.01 µM) | relative viability ([1]; first compound 0.03162 µM) | relative viability ([1]; first compound 0.1 µM) | relative viability (Halofuginone + OSI-027; first compound 0.001 µM) | relative viability (Halofuginone + OSI-027; first compound 0.003162 µM) | relative viability (Halofuginone + OSI-027; first compound 0.01 µM) | relative viability (Halofuginone + OSI-027; first compound 0.03162 µM) | relative viability (Halofuginone + OSI-027; first compound 0.1 µM) | relative viability (Cediranib + Pemetrexed; first compound 0.1265 µM)
LXF-289 | 1.1 | 0.8 | 0.936 | 0.863 | 0.815 | 0.783 | 0.729 | 0.779 | 0.819 | 0.938 | 1.05 | 0.877 | 0.954 | 0.923 | 0.762 | 0.885 | 0.819 | 0.785 | 0.542 | –
NCI-H23 | 0.602 | 0.525 | 0.692 | 0.699 | 0.472 | – | 0.533 | 0.345 | 0.569 | 0.656 | 0.573 | 0.556 | 0.692 | 0.211 | 0.755 | 0.554 | 0.545 | 0.441 | 0.344 | 0.693
NCI-H322M | 0.64 | 0.592 | 0.648 | 0.572 | 0.52 | 0.698 | 0.533 | 0.467 | 0.521 | 0.919 | 1.02 | 0.907 | 1.04 | 0.926 | 0.596 | 0.652 | 0.488 | 0.49 | 0.346 | 0.684
NCI-H358 | 0.176 | 0.168 | 0.17 | 0.187 | 0.323 | 0.462 | 0.314 | 0.271 | 0.404 | 0.779 | 0.707 | 0.629 | 0.273 | 0.19 | 0.972 | 0.836 | 0.664 | 0.267 | 0.107 | 0.198
NCI-H441 | 0.265 | 0.258 | 0.271 | 0.257 | 0.492 | 0.474 | 0.45 | 0.378 | 0.426 | 0.6 | 0.651 | 0.525 | 0.561 | 0.353 | 0.737 | 0.583 | 0.591 | 0.647 | 0.336 | 0.291
NCI-H460 | 0.0716 | 0.0685 | 0.0585 | 0.0931 | 0.466 | 0.7 | 0.355 | 0.33 | 0.397 | 0.696 | 0.833 | 0.78 | 0.404 | 0.0417 | 0.715 | 0.728 | 0.614 | 0.557 | 0.131 | 0.0662
NCI-H520 | 0.668 | 0.623 | 0.602 | 0.563 | 0.312 | – | 0.246 | 0.221 | 0.22 | 0.997 | 0.85 | 0.994 | 0.667 | 0.422 | 0.311 | 0.3 | 0.258 | 0.321 | 0.199 | 0.789
NCI-H596 | 0.472 | 0.427 | 0.476 | 0.525 | 0.458 | 0.493 | 0.348 | 0.37 | 0.241 | 1.13 | 1.04 | 1.07 | 1.12 | 0.732 | 0.923 | 0.938 | 0.845 | 0.67 | 0.354 | 0.499
NCI-H647 | 0.185 | 0.2 | 0.178 | 0.172 | 0.429 | – | 0.392 | 0.324 | 0.385 | 1.35 | 1.06 | 1.03 | 0.665 | 0.173 | 0.654 | 0.623 | 0.618 | 0.715 | 0.334 | 0.254
NCI-H650 | 0.862 | 0.955 | 0.978 | 1.08 | 0.848 | 0.956 | 0.836 | 0.915 | 1.04 | 1.03 | 0.924 | 0.877 | 0.811 | 0.457 | 0.531 | 0.59 | 0.506 | 0.492 | 0.533 | 0.569
NCI-H661 | 0.974 | 0.935 | 0.891 | 1.03 | 0.428 | 0.588 | 0.419 | 0.318 | 0.366 | 0.677 | 0.589 | 0.537 | 0.627 | 0.39 | 0.776 | 0.685 | 0.679 | 0.611 | 0.499 | 0.927
NCI-H838 | 0.252 | 0.229 | 0.257 | 0.231 | 0.542 | 0.46 | 0.395 | 0.275 | 0.558 | 1.03 | 0.857 | 0.94 | 0.549 | 0.127 | 0.39 | 0.414 | 0.413 | 0.339 | 0.16 | 0.241
NCI-H1355 | 1.13 | 0.95 | 1.02 | 1.08 | 0.392 | 0.273 | 0.41 | 0.263 | 0.476 | 0.825 | 0.819 | 0.832 | 0.822 | 0.61 | 0.41 | 0.423 | 0.393 | 0.463 | 0.303 | 1.06
NCI-H1395 | 0.915 | 0.825 | 0.76 | 0.801 | 0.58 | – | 0.593 | 0.557 | 0.591 | 1.17 | 1.62 | 1.2 | 0.961 | 0.776 | 0.665 | 0.656 | 0.789 | 0.594 | 0.683 | 0.985
NCI-H1437 | 0.33 | 0.289 | 0.334 | 0.337 | 0.484 | 0.413 | 0.442 | 0.228 | 0.499 | 1.05 | 1.13 | 0.988 | 0.828 | 0.208 | 0.905 | 0.933 | 0.871 | 0.847 | 0.717 | 0.299
NCI-H1563 | 0.885 | 0.843 | 0.675 | 0.872 | 0.727 | 0.576 | 0.711 | 0.66 | 0.595 | 1.3 | 1.3 | 0.963 | 0.636 | 0.603 | 0.859 | 0.735 | 0.837 | 0.612 | 0.527 | 0.879
